Experimental data as given in US8715754B2, “Chromobacterium bioactive compositions and metabolites” (Marrone Bio Innovations, Inc., priority 2010, dated 2014).

Tests used:
[1] = tested on: Cabbage looper (Trichoplusia ni) or Beet armyworm (Spodoptera exigua); assay: Screening of fractions and pure compounds in feeding assay; format: in vivo; conditions: HPLC-purified compounds
Protocol: The culture broth derived from the 10-L fermentation C. substugae in L-broth is extracted with Amberlite XAD-7 resin (Asolkar et al., 2006) by shaking the cell suspension with resin at 225 rpm for two hours at room temperature. The resin and cell mass are collected by filtration through cheesecloth and washed with DI water to remove salts. The resin, cell mass, and cheesecloth are then soaked for 2 h in acetone/methanol (50/50) after which the acetone/methanol is filtered and dried under vacuum using rotary evaporator to give the crude extract. The crude extract is then fractionated by using Sephadex LH 20 size exclusion chromatography (CH2Cl2/CH3OH; 50/50) to give 7 fractions (FIG. 1). These fractions are then concentrated to dryness using rotary evaporator and the resulting dry residues are screened for biological activity using a feeding assay with Cabbage looper (Trichoplusia ni) or Beet armyworm (Spodoptera exigua). The active fractions are then subjected to reversed phase HPLC (Spectra System P4000 (Thermo Scientific) to give pure compounds, which are then screened in above mentioned bioassays to locate/identify the active compounds. To confirm the identity of the compound, additional spectroscopic data such as LC/MS and NMR is recorded.

[2] = tested on: Cabbage Looper (Trichoplusia ni); assay: whole plant or invertebrate; format: in vivo
Protocol: Toxicity of the compound of interest in fraction 1 (F1) was confirmed in an in vitro assay using 1st instar cabbage looper larvae as a test object.
Two hundred microliters of commercial cabbage looper diet was distributed in each well of a 96-well microplate. After the diet had solidified, 100 uL of solution containing 50 uL of extract (corresponding to four individual peaks found in fraction 1; H1-H4), 350 uL EtOH and 600 uL sterile DI water was pipetted in each well, after which the plate was dried using a hand-held fan. The amount of extract in each well was 10 micrograms. Each treatment was replicated eight times, and a mixture of pure ethanol and water was used as a negative control.
One test insect (1st instar larvae of cabbage looper) was placed in each well, and the plate was covered with an adhesive seal. The seal was punctured for aeration, and the sealed plate was incubated at 26° C. for four days.
The 96-well plate assay system described in the previous example was used to determine the concentration of pure violacein needed to kill 50% of the 1st instar cabbage looper larvae. Based on the data, violacein is a potent insecticide with an estimated LC50 value of 7*10^−6 micrograms per well for cabbage looper larvae in an in vitro diet-overlay assay.

[3] = tested on: Beet Armyworm, Spodoptera exigua; assay: Synergy test on treated artificial diet, beet armyworm; format: in vivo
Protocol: (§1) Synergy tests were performed by treating artificial diet in 96-well plates and feeding treated diet to neonate larvae. 100 μL of treatment were pipetted into multiple wells of each plate. […] The diet was fan-dried to remove excess moisture. Neonate Beet Armyworm, Spodoptera exigua, or Cabbage Loopers, Trichoplusia ni, were transferred into each well of the multi-well plate. Infested plates were covered with adhesive plate sealer and a single small hole was poked into the sealer over each well to allow for aeration. Plates were stored in an incubator at 26° C., 16 h light/8 h dark cycle for […]. On the third and fourth day after infesting, mortality was scored.
(§2) The determination of a synergistic, antagonistic, or additive interaction was determined using the methods from (Colby 1967). Due to variation in bioassays, it was determined that ratios between 0 and 0.9 would be considered antagonistic, 0.9-1.1 ratios would be additive, and ratios above 1.1 would be considered synergistic relationships.
MBI-203 synergy with insecticides against Beet Army Worm (BAW) was tested. Chlorantranilipole (marketed as Coragen®, Dupont), Bacillus thuringiensis var. kurstaki (Dipel®, Valent Biosciences), Spinosad (marketed as Entrust®, Dow Agro Sciences), Spirotetramet (marketed as Movento®, Bayer Crop Science) and Pyrethrum/pyrethrins (marketed as Pyganic®, Arbico Organics) were tested with MBI-203. As noted above, except where indicated, LC50 concentrations of MBI-203 and insecticides were used. […] Pyrethrum combinations with MBI-203 were antagonistic.

[4] = tested on: Cabbage Loopers, Trichoplusia ni; assay: Synergy test on treated artificial diet, cabbage loopers; format: in vivo
Protocol: as §1, §2
MBI-203 synergy with insecticides against Cabbage Loopers was tested. Chlorantranilipole (marketed as Coragen®, Dupont), Bacillus thuringiensis var. kurstaki (Dipel®, Valent Biosciences), Spinosad (marketed as Entrust®, Dow Agro Sciences), Spirotetramet (marketed as Movento®, Bayer Crop Science) and Pyrethrum/pyrethrins (marketed as Pyganic®, Arbico Organics) were tested with MBI-203. As noted above, except where indicated, LC50 concentrations of MBI-203 and insecticides were used.

[5] = tested on: root knot nematode Meloidogyne sp.; assay: Mini drench test, root galling of cucumber (Zeck's gall index); format: in vivo, Meloidogyne incognita; conditions: 20 ppm
Protocol: MBI-203 was tested for its intrinsic activity against the root knot nematode Meloidogyne sp. in two mini drench tests.
Specifically MBI-203 was tested in a greenhouse assay conducted in 45 ml pots. Cucumber seeds cv. Toshka were sown directly into pots filled with a sandy loam soil. Ten days later pots were each treated with 5 ml of a suspension. Hereafter, pots were inoculated with 3000 eggs of M. incognita. Four replicates were prepared for each treatment and rate. The trial was harvested fourteen days after trial application and inoculation. Root galling was assessed according to Zeck's gall index (Zeck, 1971). Specific conditions are set forth below in Table 3.

[6] = Trichoplusia ni, 96 h, read-out: % mortality Day 4

O=C1NC(c2c[nH]c3ccc(O)cc23)=C/C1=C1\C(=O)Nc2ccccc21 (single isomer, unassigned) [Violacein, violacein]
activity in feeding bioassay (active compound) [1]: active | mortality at 1e-06 µg/disc [2, 6]: 14.2% | mortality at 1e-05 µg/disc [2, 6]: 71.4% | mortality at 0.0001 µg/disc [2, 6]: 100% | mortality at 0.001 µg/disc [2, 6]: 100% | mortality at 0.01 µg/disc [2, 6]: 100% | mortality at 0.1 µg/disc [2, 6]: 100% | mortality at 1 µg/disc [2, 6]: 100% | mortality at 10 µg/disc [2, 6]: 100% | estimated LC50 ([2]; in vivo): 7*10^−6 micrograms per well

CNC(=O)c1cc(Cl)cc(C)c1NC(=O)c1cc(Br)nn1-c1ncccc1Cl [Chlorantranilipole]
Product alone Kill % ([3]; LC50 concentration): 9.1% | Product alone Kill % ([4]; LC50 concentration): 3%

CCOP(=O)(SC(C)CC)N1CCSC1=O (stereo not shown) [Fosthiazate]
control ([5]; Mini drench test no. 1): 100% | control ([5]; Mini drench test no. 2): 100%

CCOC(=O)OC1=C(c2cc(C)ccc2C)C(=O)N[C@]12CC[C@@H](OC)CC2 [Spirotetramet]
Product alone Kill % ([3]; Spirotetramet 0.53X LC50): 42.9% | Product alone Kill % ([3]; Spirotetramet 1.4X LC50): 77.5% | Product alone Kill % ([4]; LC50 concentration): 23.8% | Product alone Kill % ([4]; Spirotetramet 0.5X LC50): 41.5%

O=C1NC(c2c[nH]c3ccccc23)=C/C1=C1\C(=O)Nc2ccccc21 [deoxyviolacein (3), deoxyviolacein]
activity in feeding bioassay (active compound) [1]: active

Spinosad
Product alone Kill % ([3]; LC50 concentration): 68.7% | Product alone Kill % ([4]; LC50 concentration): 54.3%

chromamide A
activity in feeding bioassay (active compound) [1]: active
